Results from the NIST ThermoML archive (doi:10.1021/je500420g).
Numbers after ± are expanded uncertainties.

Assay: xn = mol fraction of the nth substance listed
Details: 100 kPa, Liquid, Vibrating tube method

Compound	mass density (293.15 K, x1 = 0.01) [kg/m3]	mass density (293.15 K, x1 = 0.03) [kg/m3]	mass density (293.15 K, x1 = 0.05) [kg/m3]	mass density (303.15 K, x1 = 0.01) [kg/m3]	mass density (303.15 K, x1 = 0.03) [kg/m3]	mass density (303.15 K, x1 = 0.05) [kg/m3]	mass density (313.15 K, x1 = 0.01) [kg/m3]	mass density (313.15 K, x1 = 0.03) [kg/m3]	mass density (313.15 K, x1 = 0.05) [kg/m3]	mass density (323.15 K, x1 = 0.01) [kg/m3]	mass density (323.15 K, x1 = 0.03) [kg/m3]	mass density (323.15 K, x1 = 0.05) [kg/m3]	mass density (333.15 K, x1 = 0.01) [kg/m3]	mass density (333.15 K, x1 = 0.03) [kg/m3]	mass density (333.15 K, x1 = 0.05) [kg/m3]
[Cl-].[K+] [potassium chloride] + O	1024.3 ± 0.2	1074.8 ± 0.2	1123.6 ± 0.3	1021.4 ± 0.2	1071.2 ± 0.2	1119.6 ± 0.3	1017.7 ± 0.2	1067 ± 0.2	1115.1 ± 0.3	1013.3 ± 0.2	1062.4 ± 0.2	1110.2 ± 0.3	1008.4 ± 0.2	1057.2 ± 0.3	1104.9 ± 0.3
[Br-].[Li+] [lithium bromide] + O	1033.5 ± 0.2	1101.8 ± 0.3	1171.5 ± 0.3	1030.2 ± 0.2	1098 ± 0.3	1168 ± 0.3	1026.3 ± 0.2	1093.9 ± 0.3	1163.9 ± 0.3	1022 ± 0.2	1089.4 ± 0.3	1159.3 ± 0.3	1017.2 ± 0.2	1084.6 ± 0.3	1154.3 ± 0.3
[I-].[Na+] [sodium iodide] + O	1061.7 ± 0.2	1186.7 ± 0.3	1309.5 ± 0.4	1058.4 ± 0.2	1181.8 ± 0.3	1303.2 ± 0.4	1054.2 ± 0.2	1176.3 ± 0.3	1296.5 ± 0.4	1049.5 ± 0.2	1169.1 ± 0.3	1289.5 ± 0.4	1044.1 ± 0.2	1163.4 ± 0.3	1282.2 ± 0.4
[I-].[K+] [potassium iodide] + O	1065.2 ± 0.2	1194 ± 0.3	1317.9 ± 0.4	1061.9 ± 0.2	1189.3 ± 0.3	1312.1 ± 0.4	1057.9 ± 0.2	1184.1 ± 0.3	1306 ± 0.4	1053.2 ± 0.2	1178.4 ± 0.3	1299.3 ± 0.4	1047.9 ± 0.2	1172.3 ± 0.3	1292.4 ± 0.4
[Br-].[Na+] [sodium bromide] + O	1043.6 ± 0.2	1129.5 ± 0.3	1217.1 ± 0.3	1040 ± 0.2	1125.2 ± 0.3	1211.8 ± 0.3	1035.8 ± 0.2	1120.4 ± 0.3	1206.2 ± 0.3	1031.1 ± 0.2	1115.1 ± 0.3	1200.2 ± 0.3	1026 ± 0.2	1109.4 ± 0.3	1194 ± 0.3
[Br-].[Rb+] [rubidium bromide] + O	1068.6 ± 0.2	1204.6 ± 0.3	1336.9 ± 0.4	1065 ± 0.2	1199.7 ± 0.3	1331 ± 0.4	1060.7 ± 0.2	1194.5 ± 0.3	1324.9 ± 0.4	1056 ± 0.2	1188.9 ± 0.3	1318.6 ± 0.4	1050.9 ± 0.2	1182.9 ± 0.3	1312.2 ± 0.4
[F-].[K+] [potassium fluoride] + O	1025.7 ± 0.2	1080.5 ± 0.2	1135.5 ± 0.3	1022.8 ± 0.2	1077 ± 0.2	1130.7 ± 0.3	1019.2 ± 0.2	1072.9 ± 0.2	1126.5 ± 0.3	1014.8 ± 0.2	1068.4 ± 0.2	1121.9 ± 0.3	1010 ± 0.2	1063.5 ± 0.2	1116.9 ± 0.3
[Cl-].[Rb+] [rubidium chloride] + O	1048.3 ± 0.2	1144.2 ± 0.3	1237.9 ± 0.3	1044.8 ± 0.2	1139.8 ± 0.3	1232.8 ± 0.3	1040.7 ± 0.2	1135 ± 0.3	1227.5 ± 0.3	1036.1 ± 0.2	1130 ± 0.3	1222 ± 0.3	1031.2 ± 0.2	1124.7 ± 0.3	1216.3 ± 0.3

The next lines start with the values.

mass density (293.15 K, x1 = 0.01) [kg/m3]	mass density (293.15 K, x1 = 0.03) [kg/m3]	mass density (293.15 K, x1 = 0.05) [kg/m3]	mass density (303.15 K, x1 = 0.01) [kg/m3]	mass density (303.15 K, x1 = 0.03) [kg/m3]	mass density (303.15 K, x1 = 0.05) [kg/m3]	mass density (313.15 K, x1 = 0.01) [kg/m3]	mass density (313.15 K, x1 = 0.03) [kg/m3]	mass density (313.15 K, x1 = 0.05) [kg/m3]	mass density (323.15 K, x1 = 0.01) [kg/m3]	mass density (323.15 K, x1 = 0.03) [kg/m3]	mass density (323.15 K, x1 = 0.05) [kg/m3]	mass density (333.15 K, x1 = 0.01) [kg/m3]	mass density (333.15 K, x1 = 0.03) [kg/m3]	mass density (333.15 K, x1 = 0.05) [kg/m3]	Compound
1069.9 ± 0.2	1208.3 ± 0.3	1342.6 ± 0.4	1066.3 ± 0.2	1203.6 ± 0.3	1337 ± 0.4	1062.1 ± 0.2	1198.6 ± 0.3	1331.2 ± 0.4	1057.5 ± 0.2	1193.2 ± 0.3	1325.2 ± 0.4	1052.4 ± 0.2	1187.7 ± 0.3	1319.1 ± 0.4	[Cl-].[Cs+] [cesium chloride] + O
1022.7 ± 0.2	–	–	1019.7 ± 0.2	–	–	1016 ± 0.2	–	–	1011.5 ± 0.2	–	–	1006.5 ± 0.2	–	–	[F-].[Na+] [sodium fluoride] + O
1021.3 ± 0.2	1066.2 ± 0.2	1110.8 ± 0.3	1018.3 ± 0.2	1062.4 ± 0.2	1106.2 ± 0.3	–	1058 ± 0.2	1101.6 ± 0.3	1010.1 ± 0.2	1052.4 ± 0.2	1096.4 ± 0.3	1005.1 ± 0.2	1047.6 ± 0.2	1090.9 ± 0.3	[Cl-].[Na+] [sodium chloride] + O
1090.5 ± 0.2	1267.9 ± 0.4	1438.8 ± 0.5	1086.7 ± 0.2	1262.8 ± 0.4	1432.6 ± 0.5	1082.3 ± 0.3	1257.3 ± 0.4	1426 ± 0.5	1077.6 ± 0.3	1251.5 ± 0.4	1419.3 ± 0.5	1072.4 ± 0.3	1245.5 ± 0.4	1412.4 ± 0.5	[Br-].[Cs+] [cesium bromide] + O
1012.3 ± 0.2	1038.5 ± 0.2	1064.1 ± 0.2	1009.7 ± 0.2	1035.7 ± 0.2	1061.2 ± 0.2	1006.2 ± 0.2	1032.3 ± 0.2	1057.9 ± 0.2	1002.1 ± 0.2	1028.3 ± 0.2	1054 ± 0.2	997.4 ± 0.2	1023.8 ± 0.2	1049.8 ± 0.2	[Cl-].[Li+] [lithium chloride] + O
1048.7 ± 0.2	1150.6 ± 0.3	1250.3 ± 0.4	1045.7 ± 0.2	1146.5 ± 0.3	1246.1 ± 0.4	1042 ± 0.2	1141.9 ± 0.3	1241.4 ± 0.4	1037.6 ± 0.2	1137 ± 0.3	1236.2 ± 0.4	1032.6 ± 0.2	1131.6 ± 0.3	1230.6 ± 0.4	[F-].[Rb+] [rubidium fluoride (RbF)] + O
